Measured values taken from patent publication US10329294B2, “Pyrazolopyrimidine inhibitors of IRAK4 activity” (MERCK SHARP & DOHME CORP., priority 2015, dated 2019).
Counter-ions that a name gives are not always drawn.

Each compound was assayed against IRAK4 (Homo sapiens (Human), UniProt Q9NWZ3) (assay: IRAK4 Kinase Assay). Conditions: IMAP fluorescence polarization, 0.5 nM GST tagged IRAK4, 100 μM ATP, 30 minutes at 25° C.; read-out: IRAK4 IC50.
Assay type: biochemical

IRAK4, sequence (Q9NWZ3 whole entry): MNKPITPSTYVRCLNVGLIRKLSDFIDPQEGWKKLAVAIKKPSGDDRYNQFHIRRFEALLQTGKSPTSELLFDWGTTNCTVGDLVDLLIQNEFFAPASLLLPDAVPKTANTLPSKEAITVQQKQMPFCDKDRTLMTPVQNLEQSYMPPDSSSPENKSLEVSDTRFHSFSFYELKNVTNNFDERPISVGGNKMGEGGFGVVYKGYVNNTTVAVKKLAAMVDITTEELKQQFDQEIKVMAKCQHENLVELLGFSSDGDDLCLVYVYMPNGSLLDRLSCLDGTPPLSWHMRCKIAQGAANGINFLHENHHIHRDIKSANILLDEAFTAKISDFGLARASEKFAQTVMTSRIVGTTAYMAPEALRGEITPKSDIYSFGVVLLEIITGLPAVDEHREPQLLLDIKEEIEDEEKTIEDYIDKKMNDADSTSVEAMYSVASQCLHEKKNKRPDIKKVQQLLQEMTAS

SMILES | IC50
O=C(Nc1ccccc1Cl)c1cnn2ccc(N3CC4CCC3CN4)nc12 (centres unmarked) [Example 107, N-(2-chlorophenyl)-5-(2,5-diazabicyclo[2.2.2]oct-2-yl)pyrazolo[1,5-a]pyrimidine-3-carboxamide trifluoroacetate] | 521 nM
O=C(Nc1ccccc1Br)c1cnn2ccc(N3CCCNCC3)nc12 [Example 109, N-(2-bromophenyl)-5-(1,4-diazepan-1-yl)pyrazolo[1,5-a]pyrimidine-3-carboxamide trifluoroacetate] | 3360 nM
Cn1cc(NC(=O)c2cnn3ccc(N[C@H]4CNCC(F)(F)C4)nc23)c(C(F)F)n1 (single isomer, unassigned) [Example 235, N-[3-(difluoromethyl)-1-methyl-1H-pyrazol-4-yl]-5-{[(3S)- or (3R)-5,5-difluoropiperidin-3-yl]amino}pyrazolo[1,5-a]pyrimidine-3-carboxamide] | 0.7 nM
N[C@@H]1[C@H](Nc2ccn3ncc(C(=O)Nc4cscc4Br)c3n2)CCCC1(F)F [Example 122, 5-{[(1R,2R)-2-amino-3,3-difluorocyclohexyl]amino}-N-(4-bromothiophen-3-yl)pyrazolo[1,5-a]pyrimidine-3-carboxamide trifluoroacetate] | 1140 nM
Cn1cc(NC(=O)c2cnn3ccc(N4[C@@H]5CC[C@H]4[C@@H]4CC[C@H]5N4)nc23)c(C(F)(F)F)n1 [Example 92, 5-[9,10-diazatricyclo[4.2.1.1~2,5~]dec-9-yl]-N-]1-methyl-3-(trifluoromethyl)-1H-pyrazol-4-yl]pyrazolo[1,5-a]pyrimidine-3-carboxamide trifluoroacetate] | 115 nM
Cn1cc(NC(=O)c2cnn3ccc(N[C@@H]4CCCC(F)[C@@H]4N)nc23)c(C(F)(F)F)n1 (single isomer, unassigned) [Example 203, 5-{[(1R,2R)- or (1S,2S)-2-amino-3-fluorocyclohexyl]amino}-N-[1-methyl-3-(trifluoromethyl)-1H-pyrazol-4-yl]pyrazolo[1,5-a]pyrimidine-3-carboxamide] | 7 nM
Cn1cc(NC(=O)c2cnn3ccc(N4CCNC(C(F)F)C4)nc23)c(C(F)(F)F)n1 (centres unmarked) [Example 16, 5-[3-(difluoromethyl)piperazin-1-yl]-N-[1-methyl-3-(trifluoromethyl)-1H-pyrazol-4-yl]pyrazolo[1,5-a]pyrimidine-3-carboxamide formate] | 49 nM
N#Cc1sccc1NC(=O)c1cnn2ccc(N[C@@H]3CCCC(F)(F)[C@@H]3N)nc12 [Example 133, 5-{[(1R,2R)-2-amino-3,3-difluorocyclohexyl]amino}-N-(2-cyanothiophen-3-yl)pyrazolo[1,5-a]pyrimidine-3-carboxamide trifluoroacetate] | 95 nM
Cn1cc(NC(=O)c2cnn3ccc(N[C@@H]4CCC(F)(F)C[C@@H]4N)nc23)c(C(F)F)n1 (single isomer, unassigned) [Example 211, 5-{[(1S,2R)- or (1R,2S)-2-amino-4,4-difluorocyclohexyl]amino}-N-[3-(difluoromethyl)-1-methyl-1H-pyrazol-4-yl]pyrazolo[1,5-a]pyrimidine-3-carboxamide] | 27 nM
Cn1cc(NC(=O)c2cnn3ccc(N4CC[C@@H]5CC[C@H](C4)N5)nc23)c(C(F)(F)F)n1 (single isomer, unassigned) [Example 94, 5-[(1R,6S)- or (1S,6R)-3,9-diazabicyclo[4.2.1]non-3-yl]-N-[1-methyl-3-(trifluoromethyl)-1H-pyrazol-4-yl]pyrazolo[1,5-a]pyrimidine-3-carboxamide trifluoroacetate] | 70 nM
N[C@H]1CCCC[C@H]1Nc1ccn2ncc(C(=O)Nc3ccncc3C(F)(F)F)c2n1 [Example 31, 5-{[(1R,2S)-2-aminocyclohexyl]amino}-N-[3-(trifluoromethyl)pyridin-4-yl]pyrazolo[1,5-a]pyrimidine-3-carboxamide formate] | 4 nM
N[C@@H]1[C@H](Nc2ccn3ncc(C(=O)Nc4ccsc4Cl)c3n2)CCCC1(F)F [Example 118, 5-{[(1R,2R)-2-amino-3,3-difluorocyclohexyl]amino}-N-(2-chlorothiophen-3-yl)pyrazolo[1,5-a]pyrimidine-3-carboxamide trifluoroacetate] | 342 nM
Cn1cc(NC(=O)c2cnn3ccc(N4CC5CCC4CN5)nc23)c(C(F)F)n1 (centres unmarked) [Example 96, 5-(2,5-diazabicyclo[2.2.2]oct-2-yl)-N-[3-(difluoromethyl)-1-methyl-1H-pyrazol-4-yl]pyrazolo[1,5-a]pyrimidine-3-carboxamide trifluoroacetate] | 2 nM
Cn1cc(NC(=O)c2cnn3ccc(N4CC5CCC(C4)N5)nc23)c(C(F)F)n1 [Example 172, 5-(3,8-diazabicyclo[3.2.1]oct-3-yl)-N-[3-(difluoromethyl)-1-methyl-1H-pyrazol-4-yl]pyrazolo[1,5-a]pyrimidine-3-carboxamide trifluoroacetate] | 1 nM
O=C(Nc1cn(C(F)F)nc1C(F)(F)F)c1cnn2ccc(N3CCNCC4(CC4)C3)nc12 [Example 68, 5-(5,8-diazaspiro[2.6]non-5-yl)-N-[1-(difluoromethyl)-3-(trifluoromethyl)-1H-pyrazol-4-yl]pyrazolo[1,5-a]pyrimidine-3-carboxamide trifluoroacetate] | 32 nM

Second part, the compound after the results:

IC50 | SMILES
2 nM | Cn1cc(NC(=O)c2cnn3ccc(N4CCC(F)(F)[C@@H](N)C4)nc23)c(C(F)F)n1 (single isomer, unassigned) [Example 189, 5-[(4R)- or (4S)-(3-amino-4,4-difluoropiperidin-1-yl)-N-[3-(difluoromethyl)-1-methyl-1H-pyrazol-4-yl]pyrazolo[1,5-a]pyrimidine-3-carboxamide trifluoroacetate]
17 nM | CC(C)n1cc(NC(=O)c2cnn3ccc(N4CCNCC4)nc23)c(C(F)(F)F)n1 [Example 298, N-[1-(1-methylethyl)-3-(trifluoromethyl)-1H-pyrazol-4-yl]-5-piperazin-1-ylpyrazolo[1,5-a]pyrimidine-3-carboxamide trifluoroacetate]
36 nM | CC(C)n1cc(NC(=O)c2cnn3ccc(N[C@@H]4CCCC(F)(F)[C@@H]4N)nc23)c(C(F)F)n1 [Example 200, 5-{[(1R,2R)-2-amino-3,3-difluorocyclohexyl]amino}-N-[3-(difluoromethyl)-1-(1-methylethyl)-1H-pyrazol-4-yl]pyrazolo[1,5-a]pyrimidine-3-carboxamide trifluoroacetate]
0.8 nM | CC(C)n1cc(NC(=O)c2cnn3ccc(N[C@@H]4CCCC[C@@H]4N)nc23)c(C(F)(F)F)n1 [Example 291, 5-{[(1R,2S)-2-aminocyclohexyl]amino}-N-[1-(1-methylethyl)-3-(trifluoromethyl)-1H-pyrazol-4-yl]pyrazolo[1,5-a]pyrimidine-3-carboxamide trifluoroacetate]
50 nM | Cn1cc(NC(=O)c2cnn3ccc(N4C[C@@H]5CC[C@H]4CN5)nc23)c(Br)n1 (single isomer, unassigned) [Example 164, N-(3-bromo-1-methyl-1H-pyrazol-4-yl)-5-[(1S,4S)- or (1R,4R)-2,5-diazabicyclo[2.2.2]oct-2-yl]pyrazolo[1,5-a]pyrimidine-3-carboxamide trifluoroacetate]
1240 nM | N[C@@H]1[C@H](Nc2ccn3ncc(C(=O)Nc4ccsc4Br)c3n2)CCCC1(F)F [Example 128, 5-{[(1R,2R)-2-amino-3,3-difluorocyclohexyl]amino}-N-(2-bromothiophen-3-yl)pyrazolo[1,5-a]pyrimidine-3-carboxamide trifluoroacetate]
48 nM | O=C(Nc1cscc1C(F)F)c1cnn2ccc(N3CC4CCC3CN4)nc12 (centres unmarked) [Example 135, 5-(2,5-diazabicyclo[2.2.2]oct-2-yl)-N-[4-(difluoromethyl)thiopen-3-yl]pyrazolo[1,5-a]pyrimidine-3-carboxamide trifluoroacetate]
0.4 nM | N[C@H]1CCCC[C@H]1Nc1ccn2ncc(C(=O)Nc3cn(C4CC4)nc3C(F)(F)F)c2n1 [Example 293, 5-{[(1R,2S)-2-aminocyclohexyl]amino}-N-[1-cyclopropyl-3-(trifluoromethyl)-1H-pyrazol-4-yl]pyrazolo[1,5-a]pyrimidine-3-carboxamide trifluoroacetate]
28 nM | Cn1cc(NC(=O)c2cnn3ccc(N4C[C@H]5CC[C@@H]4CN5)nc23)c(Cl)n1 (single isomer, unassigned) [Example 152, N-(3-chloro-1-methyl-1H-pyrazol-4-yl)-5-[(1S,4S)- or (1R,4R)-(2,5-diazabicyclo[2.2.2]oct-2-yl]pyrazolo[1,5-a]pyrimidine-3-carboxamide trifluoroacetate]
3 nM | Cn1cc(NC(=O)c2cnn3ccc(N[C@@H]4CCCC[C@@H]4N)nc23)c(CCF)n1 [Example 289, 5-{[(1R,2S)-2-aminocyclohexyl]amino}-N-[3-(2-fluoroethyl)-1-methyl-1H-pyrazol-4-yl]pyrazolo[1,5-a]pyrimidine-3-carboxamide trifluoroacetate]
64 nM | CC(O)c1cc(NC(=O)c2cnn3ccc(N[C@@H]4CCCC[C@@H]4N)nc23)cs1 (stereo partly drawn) [Example 276, 5-(((1R,2S)-2-Aminocyclohexyl)amino)-N-(5-(1-hydroxyethyl)thiophen-3-yl)pyrazolo[1,5-a]pyrimidine-3-carboxamide]
42 nM | Cn1cc(NC(=O)c2cnn3ccc(N4CC5CCC4CN5)nc23)c(Br)n1 (centres unmarked) [Example 140, N-(3-bromo-1-methyl-1H-pyrazol-4-yl)-5-(2,5-diazabicyclo[2.2.2]oct-2-yl)pyrazolo[1,5-a]pyrimidine-3-carboxamide trifluoroacetate]
0.7 nM | Cn1cc(NC(=O)c2cnn3ccc(N4C[C@H](N)C[C@H](F)C4)nc23)c(C(F)F)n1 [Example 251, 5-[(3R,5S)-3-amino-5-fluoropiperidin-1-yl]-N-[3-(difluoromethyl)-1-methyl-1H-pyrazol-4-yl]pyrazolo[1,5-a]pyrimidine-3-carboxamide trifluoroacetate]
127 nM | Cn1cc(NC(=O)c2cnn3ccc(N4CCNCC4(C)C)nc23)c(C(F)(F)F)n1 [Example 216, 5-(2,2-dimethylpiperazin-1-yl)-N-[1-methyl-3-(trifluoromethyl)-1H-pyrazol-4-yl]pyrazolo[1,5-a]pyrimidine-3-carboxamide trifluoroacetate]
